Test results: patent US12459939B2 (SHANGHAI RINGENE BIOPHARMA CO., LTD., priority 2019, dated 2025)

Tests used:
[1] = Metabolic stability in dog liver microsomes; assay type: in vitro ADME; conditions: liver microsomes 0.5 mg/mL, NADPH, 1 μM compound, read-out: Dog microsomal T1/2
Description: (§1) (1) Metabolic stability test: 150 μL of liver microsomes (final concentration was 0.5 mg/mL) were subjected to metabolic stability incubation, the system containing NADPH (final concentration was 1 mM), 1 μM of the test compound and the positive control midazolam or the negative control atenolol, the reaction was terminated with acetonitrile containing tinidazole at 0 min, 5 min, 10 min, and 30 min, respectively, then the mixture was vortexed for 10 min, and centrifuged at 15000 rmp for 10 min, 50 μL of the supernatant was injected into 96 well. The metabolic stability of the compound was calculated by measuring the relative reduction of the original drug. (See Table 3 for specific values)

MV4-11 cells = assay: Inhibition of proliferation of MV4-11 cells (CellTiter-Glo); assay type: cell-based; conditions: Homo sapiens, 72 h
Description: Specific experimental steps: 1) Day 0: 96 inoculated cells were digested with trypsin and suspended in cell culture medium, the cell density was detected by an automatic cell counter and the cells were diluted with the culture medium to a suitable density, 100 μL of cell suspension was added to the 96-well plate, and the cell-free medium was used as a control well, and the wells were incubated in a 37° C., 5% CO2 cell incubator overnight; 2) Day 1: A total of 8 concentrations of the compound to be tested in the drug-treated cells were tested at 3-fold dilution, 10 μM was the starting assay concentration of the compound to be tested. Specific steps: 200× compound mother liquor was prepared, the compound was diluted with culture medium to a final concentration of […], that is, 3 μL of 200× compound was added to 197 μL of culture medium, 50 μL diluted compound was added to each well of the 96-well plate, and placed at 37° C., 5% CO2 cell culture incubator for 72 h; 3) Day 4: Cell viability detection: 96-well cell plate was first equilibrated to room temperature, 40 μL of CellTiter-Glo® reagent was added to each well, mixed on a shaker for 2 minutes to fully lyse the cells, incubated at room temperature for 10 minutes to stabilize the luminescence signal, and the luminescence value was read by the Envision microplate reader; 4) data processing was performed by GraphPad Prism 5.0 software to analyze the data, and nonlinear S-curve regression was used to fit the data to obtain a dose-effect curve, and from which the ICso value was calculated. Inhibition rate %=(DMSO treated cell wells−compound treated cell wells)/(DMSO treated cell wells−cell free medium wells)×100. The ICso value was obtained by the four-parameter regression method using the random software in the microplate reader. (See Table 2 for specific values)

[2] = system: LNCAP, SKM-1, MOLM13, KASUMI 1, THP-1, KG-1; assay: Proliferation inhibition of different cell lines: most sensitive lines; assay type: cell-based; conditions: some cell lines such as LNCAP, read-out: proliferation inhibitory activity IC50
Description: (§2) The proliferation inhibitory activity of some of the embodiment compounds against different cell lines such as LNCAP (+R1881), SKM-1, 22RV1, DU145, MOLM13, MDA-PCA-2b, KASUMI 1, THP-1, KG-1, IEC6, H1299, etc., was tested using similar methods in test embodiment 2 and in the literature.

[3] = Metabolic stability in rat liver microsomes; assay type: in vitro ADME; conditions: liver microsomes 0.5 mg/mL, NADPH, 1 μM compound, read-out: Rat microsomal T1/2
Description: as §1

IEC6 = assay: Proliferation inhibition of IEC6 cells; assay type: cell-based; conditions: Rattus norvegicus, IEC-6; IEC6 cell line; read-out: proliferation inhibitory activity IC50
Description: as §2

CYP2C19 = target: T1, CYP2C19 (Homo sapiens, UniProt P33261); assay: Direct inhibition test (DI test) in human liver microsomes, CYP2C19; assay type: in vitro ADME; conditions: read-out: inhibitory IC50 on CYP 2C19
T1 construct: human liver microsomes (final concentration was 0.2 mg/mL); from tissue; host or cells: human liver microsomes
T1 sequence (P33261 whole entry): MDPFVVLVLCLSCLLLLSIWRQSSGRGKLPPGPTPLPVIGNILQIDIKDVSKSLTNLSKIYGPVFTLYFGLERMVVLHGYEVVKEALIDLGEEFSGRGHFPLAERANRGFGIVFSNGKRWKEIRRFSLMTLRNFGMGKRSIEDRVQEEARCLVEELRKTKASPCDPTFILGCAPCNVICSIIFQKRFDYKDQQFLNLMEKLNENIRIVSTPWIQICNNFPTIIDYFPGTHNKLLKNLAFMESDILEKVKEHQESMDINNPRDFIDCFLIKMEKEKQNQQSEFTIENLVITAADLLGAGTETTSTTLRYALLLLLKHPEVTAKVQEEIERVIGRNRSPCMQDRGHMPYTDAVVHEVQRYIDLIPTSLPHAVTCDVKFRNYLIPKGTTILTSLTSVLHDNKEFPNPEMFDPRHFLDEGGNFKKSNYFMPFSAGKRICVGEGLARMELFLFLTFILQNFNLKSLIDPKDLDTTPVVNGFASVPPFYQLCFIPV
Description: (2) Direct inhibition test (DI test): 1004 of human liver microsomes (final concentration was 0.2 mg/mL) system was subjected to inhibition incubation directly, the system contains NADPH (final concentration was 1 mM), 10 μM compound, positive inhibitor cocktail (ketoconazole 10 μM, quinidine 10 μM, sulfapyrazole 100 μM, a-naphthoflavone 10 μM, tranylcypromine […]), negative control (0.1% DMSO BPS) and mixed probe substrate (midazolam 1004, testosterone 10004, dextromethorphan 10 μM, diclofenac 20 μM, phenacetin 100 μM, mephenytoin 100 μM), the reaction was terminated after incubation for 20 min. The relative enzyme activity was calculated by measuring the relative production of metabolites.

[4] = Metabolic stability in mouse liver microsomes; assay type: in vitro ADME; conditions: liver microsomes 0.5 mg/mL, NADPH, 1 μM compound, read-out: Mouse microsomal T1/2
Description: as §1

[5] = In vivo pharmacokinetics in mice; conditions: male, Balb c, mouse, plasma, po, 5 mg/kg; for AUC / Cmax / half-life: gavage
Description: Six male SPF-grade SD rats or Balb c mice (Shanghai B&K laboratory animals) were divided into two groups and the test compounds were configured into suitable solutions or suspensions; one group was administered intravenously and one group was administered orally. Blood was collected by jugular vein puncture, and each sample was collected about 0.2 mL/time point, heparin sodium was used for anticoagulation, the blood collection time points were as follows: before administration and 5, 15 and 30 minutes, 1, 2, 4, 6, 8 and 24 h after administration, the blood sample was collected and placed on ice, centrifuged to separate the plasma (centrifugation conditions: 8000 rpm, 6 minutes, 2-8° C.), and the collected plasma was stored at −80° C. before analysis. The plasma samples were analyzed by LC-MS/MS.
According to the blood drug concentration data of the drug, the pharmacokinetic calculation software WinNonlin5.2 non-compartmental model was used to calculate the pharmacokinetic parameters AUC0-t, AUC0-∞, MRT0-∞, Cmax, Tmax, T1/2 and Vd and other parameters and their mean and standard deviation. In addition, the bioavailability (F) was calculated by the following formula.
For samples with a concentration lower than the lower limit of quantification, when calculating the pharmacokinetic parameters, the samples sampled before reaching Cmax should be calculated as zero, and samples sampled after reaching Cmax should be calculated as unquantifiable (BLQ).

Row | Structure (SMILES) | half-life at 1 μM [1] | IC50 (MV4-11 cells) | IC50 [2] | half-life at 1 μM [3] | IC50 (IEC6) | IC50 (CYP2C19) | half-life at 1 μM [4] | bioavailability [5] | AUC [5] | Cmax [5] | half-life [5]
1 | Cc1cc(F)cc(C)c1Oc1ccc(C(C)(C)O)cc1-c1cn(C)c(=O)c2cc(C(=O)NC3CC(F)(F)C3)[nH]c12 [Embodiment 18, N-(3,3-difluorocyclobutyl)-7-(2-(4-fluoro-2,6-dimethylphenoxy)-5-(2-hydroxyprop-2-yl)phenyl)-5-methyl-4-oxo-4,5-dihydro-1H-pyrrolo[3,2-c] pyridine-2-amide] | 6.67 h | 10.6 nM | < 100 nM | 1.38 h | > 1000 nM | > 15000 nM | 1.27 h | > 40% | > 5 µM·h | > 1500 nM | > 3 h
2 | CCNC(=O)c1cc2c(=O)n(C)cc(-c3cc(C(C)(C)O)ccc3Oc3c(C)cc(F)cc3C)c2[nH]1 [compound 1, reference compound] | – | 2.3 nM | < 100 nM | – | > 1000 nM | > 15000 nM | – | > 40% | > 5 µM·h | > 1500 nM | > 3 h
